Patent publication EP2875811A1, “Use of dobesilate for treating ocular haemorrhages” (priority 2013, dated 2015)

Assays:
[1] = tested on: submacular haemorrhage; type: in vivo, human
Procedure: A person with a history of wet age-related macular degeneration (AMD) in both eyes developed a sudden vision decrease in the right eye. The best corrected visual acuity (BCVA) on presentation was of 0.05. […] Haemorrhage seems also result in the RPE detachment at some points (Fig 1D, asterisk). Intravitreal dobesilate was administered in the right eye, using a standard protocol. After approval of our Institution Ethical Committee, the patient signed an informed consent form, which included a comprehensive description of dobesilate and the proposed procedure. Patient received an intravitreal solution of dobesilate (150µl) under sterile conditions in their right eye, following the International Guidelines for intravitreal injections (Aiello LP et al. Retina. 2004; 24 (5 Suppl):S3-S19). Dobesilate was administered as a 12.5% solution of diethylammonium 2.5-dihydroxybenzenesulfonate (etamsylate; dicynone® Sanofi-Aventis. Paris. France).
(§1) • Figure 1 Sequence of fundus photographs (A-D) and spectral-domain optical coherence tomography (SD-OCT) scans (D-F) of a patient with a moderate-sized submacular haemorrhage at baseline (A,D), and one (B,E) and two months (C,F) after a single intravitreal injection of dobesilate. Asterisk in D indicates retinal pigment epithelium (RPE) detachment. • Figure 2 Efficacy of intravitreal dobesilate injection to clear vitreous haemorrhage in a diabetic patient. A and C photographs were taken at presentation, and B and D after 3 days of treatment. […] Note in B the abnormal appearance of the pupil due to luxation of the lens. Arrow indicates paracentesis site.

[2] = tested on: vitreous haemorrhage; type: in vivo, human
Procedure: A 68 old-year type 2 diabetic man presented with intense vision loss in their right eye. […] Intraocular pressure was 50mmHg that was reduced to 14mmHg after a paracentesis procedure. After approval of the Institutional Ethics Committee, the patient signed an informed consent form, which included a comprehensive description of dobesilate and the proposed procedure. Patient received an intravitreal solution of dobesilate (150 µl) under sterile conditions, following the International Guidelines for intravitreal injections (Aiello LP et al. Retina. 2004; 24 (5 Suppl):S3-S19) in their right eye. Dobesilate was administered as a 12.5% solution of diethylammonium 2.5-dihydroxybenzenesulfonate (etamsylate, dicynone® Sanofi-Aventis. Paris. France).
as §1, with “Arrow indicates paracentesis site.” left out

[3] = person, right eye, intravitreal 150µl of 12.5% solution, along two months follow-up

O=S(=O)(O)c1cc(O)ccc1O [dobesilate, diethylammonium 2.5-dihydroxybenzenesulfonate]
ocular side effects ([1]; human, in vivo): No ocular side effects were observed | SD-OCT scans: retinal architecture / RPE detachment [1, 3]: progressive normalization of the retinal architecture with disappearance of RPE detachment | haemorrhage signs (fundus) [1, 3]: gradually disappeared | final BCVA (best corrected visual acuity) ([1]; person, right eye, intravitreal 150µl of 12.5% solution, two months follow-up, BCVA on presentation 0.05): 0.50 | Intraocular pressure ([2]; after treatment, pressure had been reduced from 50mmHg to 14mmHg by paracentesis before injection): maintained at normal level | ocular side effects ([2]; human, in vivo): No ocular side effects were observed
